Assays:
[1] = target: T1, 5-LO in intact RBL-1 cells (Rattus norvegicus, UniProt P12527); experiment: 5-LO inhibition in intact RBL-1 cells (Procedure III); format: cell-based; conditions: read-out: PROC. III IC50 5-LO
T1 construct: endogenous in cells; host or cells: intact RBL-1 cells
T1 sequence (P12527 1-673): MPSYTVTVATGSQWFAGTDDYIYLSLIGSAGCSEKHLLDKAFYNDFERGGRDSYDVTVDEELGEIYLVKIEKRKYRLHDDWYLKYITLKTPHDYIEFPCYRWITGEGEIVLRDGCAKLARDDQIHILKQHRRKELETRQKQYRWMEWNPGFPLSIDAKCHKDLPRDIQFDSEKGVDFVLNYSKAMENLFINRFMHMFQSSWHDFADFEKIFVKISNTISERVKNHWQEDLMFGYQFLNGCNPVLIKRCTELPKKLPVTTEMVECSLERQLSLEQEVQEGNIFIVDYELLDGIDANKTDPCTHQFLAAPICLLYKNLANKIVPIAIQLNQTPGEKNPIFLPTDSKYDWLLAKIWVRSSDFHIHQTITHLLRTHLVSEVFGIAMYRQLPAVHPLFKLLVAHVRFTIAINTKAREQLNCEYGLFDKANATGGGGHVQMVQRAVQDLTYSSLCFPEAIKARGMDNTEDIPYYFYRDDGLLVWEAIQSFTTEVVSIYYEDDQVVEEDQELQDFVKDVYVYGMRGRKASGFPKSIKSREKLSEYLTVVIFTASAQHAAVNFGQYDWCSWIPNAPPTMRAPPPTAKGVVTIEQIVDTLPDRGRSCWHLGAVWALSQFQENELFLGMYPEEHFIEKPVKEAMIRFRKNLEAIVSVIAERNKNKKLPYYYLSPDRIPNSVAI
Protocol: (§1) The ability to inhibit 5-LO and CO in intact RBL-1 cells was also evaluated. RBL-1 cells were maintained in culture in minimal essential medium (Bio*Whittaker, Walkersville, MD), containing 12.5% fetal calf serum, 10 mg/mL streptomycin, 10 I.U./mL penicillin G, […] gentamycin and 2 mM L-glutamine (Bio*Whittaker, Walkersville, MD). Cells were collected by centrifugation, washed once in HBSS, and resuspended at a concentration of 1×10^5 cells/mL. Cells were incubated in the presence of vehicle or drug then centrifuged at 800×g for 10 minutes at 4° C. The supernatant was removed by aspiration and the cells were resuspended in 0.5 mL of HBSS. The reaction was started by the addition of 20 μg/mL of calcium ionophore A-23187 (mixed calcium and magnesium salts, Calbiochem, La Jolla CA) and allowed to proceed for 15 minutes, then stopped by plunging the tubes into a slush ice bath. The conversion of AA to 5-LO products was initiated by the addition of 10 μL (50 uCi) of 1-^14 C-AA. Products were isolated by acidification and extraction, followed by thin layer chromatography analysis as described above. Radioactive areas corresponding to authentic 5-LO and CO products were quantitated by the Bioscan 2000 Imaging System.

[2] = target: T2, RBL-1 cell cyclooxygenase (Rattus norvegicus, UniProt Q63921); experiment: RBL-1 cell cyclooxygenase, cell homogenate supernatant (Procedure II); format: biochemical; conditions: RBL-1 homogenate, 3 μM; read-out: PROC. II % INHIBITION CO
T2 construct: the supernatant was saved as the source of enzymes; endogenous in cells; host or cells: RBL-1 rat basophilic leukemia cells, homogenate supernatant
T2 sequence (Q63921 27-602): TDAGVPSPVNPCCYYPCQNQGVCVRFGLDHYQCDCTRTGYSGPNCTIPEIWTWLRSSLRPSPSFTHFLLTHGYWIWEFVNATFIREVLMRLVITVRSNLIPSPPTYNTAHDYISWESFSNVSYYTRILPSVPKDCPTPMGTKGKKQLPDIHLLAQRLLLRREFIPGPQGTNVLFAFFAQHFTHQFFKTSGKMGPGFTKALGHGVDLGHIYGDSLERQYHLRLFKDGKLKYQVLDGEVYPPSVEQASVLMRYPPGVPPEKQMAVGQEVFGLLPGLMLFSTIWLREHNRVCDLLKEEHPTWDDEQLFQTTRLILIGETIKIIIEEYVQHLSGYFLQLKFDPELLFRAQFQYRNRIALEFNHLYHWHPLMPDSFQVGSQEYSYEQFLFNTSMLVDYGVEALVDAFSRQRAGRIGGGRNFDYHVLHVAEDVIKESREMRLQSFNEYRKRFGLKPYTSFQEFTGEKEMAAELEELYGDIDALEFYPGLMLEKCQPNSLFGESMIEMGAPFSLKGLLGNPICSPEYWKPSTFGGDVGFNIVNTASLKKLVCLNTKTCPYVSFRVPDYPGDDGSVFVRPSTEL
Protocol: (§2) RBL-1 cell 5-lipoxygenase and cyclooxygenase
(§3) Rat basophilic leukemia cells (RBL-1; 5×10^7 viable cells/mL) were disrupted by homogenization on ice (four 20 sec bursts) with a Brinkman polytron. Complete cell breakage was verified microscopically. The homogenate was then centrifuged at 10,000×g for 48 minutes at 4° C. The pellet was discarded and the supernatant was saved as the source of enzymes. The supernatant was pre-incubated for five minutes at 37° C. in the presence of 2 mM of CaCl2 and compound or vehicle (1% DMSO). The conversion of AA into 5-LO products was initiated by adding 10 μL (50 μCi) of 1-^14 C-AA to each tube and incubated at 37° C. for 20 minutes. The reaction was stopped by adjusting the pH of each sample to 3 to 3.5 with 2M formic acid. Samples were extracted with three volumes of chloroform to isolate the products of 5-LO formed during the reaction. Fractions were dried under nitrogen, then resuspended in 40 μL of chloroform and spotted onto silica gel HL plates. The plates were developed in A-9 solvent. The dried plates were analyzed using a Bioscan Imaging TLC scanner to determine the percentage of radiolabelled AA converted to 5-HETE in each sample.

CO in intact RBL-1 cells = experiment: CO inhibition in intact RBL-1 cells (Procedure III); format: cell-based, rat; conditions: superscript = number of experiments, read-out: PROC. III IC50 CO
Protocol: as §1

[3] = target: T3, RBL-1 cell 5-lipoxygenase (Rattus norvegicus, UniProt P12527); experiment: RBL-1 cell 5-lipoxygenase, cell homogenate supernatant (Procedure II); format: biochemical; conditions: RBL-1 homogenate, 3 μM; read-out: PROC. II % INHIBITION 5-LO
T3 construct: the supernatant was saved as the source of enzymes; endogenous in cells; host or cells: RBL-1 rat basophilic leukemia cells, homogenate supernatant
T3 sequence (P12527 1-673): T1 sequence (P12527 1-673)
Protocol: as §2, §3

[4] = target: T4, Sheep seminal vesicle cyclooxygenase (Ovis aries, UniProt P05979); experiment: Sheep seminal vesicle cyclooxygenase (Procedure I); format: biochemical; conditions: read-out: PROC. I % INHIB CO
T4 construct: Sheep seminal vesicle (SSV) cyclooxygenase (95% pure); purchased Biomol (Plymouth Meeting, Pa.); host or cells: sheep seminal vesicle
T4 sequence (P05979 25-600): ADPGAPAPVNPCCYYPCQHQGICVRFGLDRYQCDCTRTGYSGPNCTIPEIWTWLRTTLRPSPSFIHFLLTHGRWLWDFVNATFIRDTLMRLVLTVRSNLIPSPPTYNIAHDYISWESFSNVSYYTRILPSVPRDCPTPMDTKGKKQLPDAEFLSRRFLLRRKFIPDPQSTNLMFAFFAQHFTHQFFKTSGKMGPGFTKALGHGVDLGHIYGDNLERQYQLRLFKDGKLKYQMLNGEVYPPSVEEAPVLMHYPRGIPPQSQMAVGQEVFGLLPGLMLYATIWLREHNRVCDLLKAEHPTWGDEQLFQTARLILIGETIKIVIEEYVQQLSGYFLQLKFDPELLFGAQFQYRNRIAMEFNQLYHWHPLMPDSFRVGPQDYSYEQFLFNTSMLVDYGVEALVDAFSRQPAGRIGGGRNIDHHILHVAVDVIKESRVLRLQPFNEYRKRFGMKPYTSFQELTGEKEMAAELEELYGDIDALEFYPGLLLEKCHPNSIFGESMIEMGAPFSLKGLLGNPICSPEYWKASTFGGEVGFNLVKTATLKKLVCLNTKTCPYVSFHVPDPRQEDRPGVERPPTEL
Protocol: Sheep seminal vesicle cyclooxygenase Sheep seminal vesicle (SSV) cyclooxygenase (95% pure, prostaglandin endoperoxide synthase, EC 1.14.99.1 specific activity 24 units/mg protein) obtained as a lyophilized powder from Biomol (Plymouth Meeting, Pa.) was reconstituted at a concentration of 59 mg/mL in Hanks' Balanced Salt Solution (HBSS). The enzyme was divided into 200 μL aliquots, snap frozen with liquid N2, and stored at -70° C. unitl immediately prior to use. Measurements of CO activity were carried out in polypropylene tubes containing 495 μL of HBSS to which was added 5 μL of inhibitor or dimethylsulfoxide (DMSO; vehicle control) and 6 μL of SSV CO solution. The tubes were mixed on a vortex shaker, preincubated for 5 min at 37° C. prior to the initiation of the reaction. The reaction was started by the addition of [^14 C]-arachidonic acid (1-^14 C-AA, Amersham, Arlington Heights, Il) in 10 μL of methanol. Tubes were again vortexed and incubated in a water bath for 20 minutes after which the tubes were removed and the reaction stopped by acidification with the addition of 1 mL 2M formic acid. Lipophilic products were extracted with 3 mL chloroform and concentrated to dryness under N2. Each pellet was reconstituted with 40 μL of chloroform and spotted on a Whatman Silicon thin-layer chromatography plate and developed in a chromatography tank containing A-9 solvent (11:5:2:1 V:V:V:V, ethyl acetate:trimethylpentane:acetic acid:double distilled-H2 O). Radioactive cyclooxygenase products (prostaglandin D2, prostaglandin E2, etc.) were measured using a Bioscan System 200 Imaging Scanner. Inhibition of enzyme activity was calculated by comparing the areas under the curve produced in the presence or absence of test compound.

SMILES | IC50 [1] [nM] | inhibition at 3 µM [2] [%] | IC50 (CO in intact RBL-1 cells) [nM] | inhibition at 3 µM [3] [%] | inhibition at 3 µM [4] [%]
COc1ccc(-n2nc(CSC(=S)N(O)C(C)C)c(Cl)c2-c2ccc(C)cc2)cc1 [1-I] | – | 0 | – | 82 | 0
COc1ccc(-n2nc(CSC(=S)N(C)O)c(Br)c2-c2ccc(C)cc2)cc1 [1-J] | – | 52 | – | 83 | 36
COc1ccc(-n2nc(CSC(=S)N(O)C(C)C)c(Br)c2-c2ccc(C)cc2)cc1 [1-K] | – | 0 | – | 87 | 0

The remaining lines, values ahead:

IC50 [1] [nM] | inhibition at 3 µM [2] [%] | IC50 (CO in intact RBL-1 cells) [nM] | inhibition at 3 µM [3] [%] | inhibition at 3 µM [4] [%] | SMILES
2500 | 100 | 230 | 85 | – | COc1ccc(-n2nc(CSC(=S)N(C)O)cc2-c2ccc(Cl)cc2)cc1 [1-A, 5-(4-chlorophenyl)-1-(4-methoxyphenyl)-3-pyrazolylmethyl-N-hydroxy-N-methyl dithiocarbamate]
2400 | 100 | 60 | 83 | – | COc1ccc(-n2nc(CSC(=S)N(C)O)cc2-c2ccc(C)cc2)cc1 [1-F]
